Experimental data: the NIST ThermoML archive (doi:10.1021/je101206u)

Assay: xn = mol fraction of the nth substance listed
Settings: 101 kPa, Liquid

OCCO [1,2-ethanediol] + CCCCn1cc[n+](C)c1.F[B-](F)(F)F
x2 = 0
Settings	mass density [kg/m3]	viscosity [mPa·s]
293.15 K	1113.45	21.44
303.15 K	1106.45	14.33
313.15 K	1099.38	10.01
323.15 K	1092.24	7.121
333.15 K	1085	5.33
343.15 K	1077.65	4.103
353.15 K	1070.17	3.242

CCCCn1cc[n+](C)c1.F[B-](F)(F)F [1-butyl-3-methylimidazolium tetrafluoroborate] + C[S+](C)[O-]
Settings	mass density [kg/m3]	viscosity [mPa·s]
293.15 K, x1 = 0.0722	1120.91	3.514
293.15 K, x1 = 0.1764	1142.23	6.283
293.15 K, x1 = 0.2145	1148.47	7.911
293.15 K, x1 = 0.3225	1162.89	13.46
293.15 K, x1 = 0.4189	1172.83	20.76
293.15 K, x1 = 0.607	1186.94	42.17
293.15 K, x1 = 0.6557	1188.45	48.88
293.15 K, x1 = 0.8283	1197.44	83.33
293.15 K, x1 = 0.9155	1201.03	107.2
293.15 K, x1 = 1	1204.44	136.9
298.15 K, x1 = 0.0722	1116.22	–
298.15 K, x1 = 0.1764	1137.84	–
298.15 K, x1 = 0.2145	1144.16	–
298.15 K, x1 = 0.3225	1158.77	–
298.15 K, x1 = 0.4189	1168.84	–
298.15 K, x1 = 0.607	1182.57	–
298.15 K, x1 = 0.6557	1185.38	–
298.15 K, x1 = 0.8283	1193.78	–
298.15 K, x1 = 0.9155	1197.43	–
298.15 K, x1 = 1	1200.89	–
303.15 K, x1 = 0.0722	1111.54	2.827
303.15 K, x1 = 0.1764	1133.45	4.839
303.15 K, x1 = 0.2145	1139.87	5.968
303.15 K, x1 = 0.3225	1154.66	9.732
303.15 K, x1 = 0.4189	1164.85	14.46
303.15 K, x1 = 0.607	1179.32	27.68
303.15 K, x1 = 0.6557	1181	31.52
303.15 K, x1 = 0.8283	1190.12	51.43
303.15 K, x1 = 0.9155	1193.83	64.87
303.15 K, x1 = 1	1197.34	81.4
313.15 K, x1 = 0.0722	1102.21	2.324
313.15 K, x1 = 0.1764	1124.71	3.845
313.15 K, x1 = 0.2145	1131.31	4.668
313.15 K, x1 = 0.3225	1146.47	7.347
313.15 K, x1 = 0.4189	1156.91	10.58
313.15 K, x1 = 0.607	1171.76	19.29
313.15 K, x1 = 0.6557	1173.63	21.66
313.15 K, x1 = 0.8283	1182.84	33.94
313.15 K, x1 = 0.9155	1186.65	42.14
313.15 K, x1 = 1	1190.27	51.79
323.15 K, x1 = 0.0722	1092.89	1.951
323.15 K, x1 = 0.1764	1116.01	3.137
323.15 K, x1 = 0.2145	1122.79	3.767
323.15 K, x1 = 0.3225	1138.33	5.742
323.15 K, x1 = 0.4189	1149.02	8.052
323.15 K, x1 = 0.607	1164.25	14.12
323.15 K, x1 = 0.6557	1166.3	15.79
323.15 K, x1 = 0.8283	1175.62	25.01
323.15 K, x1 = 0.9155	1179.53	29.99
323.15 K, x1 = 1	1183.24	38.04
333.15 K, x1 = 0.0722	1083.58	1.668
333.15 K, x1 = 0.1764	1107.34	2.615
333.15 K, x1 = 0.2145	1114.3	3.118
333.15 K, x1 = 0.3225	1130.22	4.618
333.15 K, x1 = 0.4189	1141.18	6.327
333.15 K, x1 = 0.607	1156.79	10.69
333.15 K, x1 = 0.6557	1158.97	11.78
333.15 K, x1 = 0.8283	1168.44	17.38
333.15 K, x1 = 0.9155	1172.45	20.96
333.15 K, x1 = 1	1176.25	24.97
343.15 K, x1 = 0.0722	1074.29	1.447
343.15 K, x1 = 0.1764	1098.7	2.222
343.15 K, x1 = 0.2145	1105.83	2.638
343.15 K, x1 = 0.3225	1122.16	3.801
343.15 K, x1 = 0.4189	1133.38	5.104
343.15 K, x1 = 0.607	1149.37	8.359
343.15 K, x1 = 0.6557	1151.6	8.977
343.15 K, x1 = 0.8283	1161.32	13.21
343.15 K, x1 = 0.9155	1165.43	15.78
343.15 K, x1 = 1	1169.32	18.49
353.15 K, x1 = 0.0722	1064.99	1.272
353.15 K, x1 = 0.1764	1090.08	1.918
353.15 K, x1 = 0.2145	1097.39	2.278
353.15 K, x1 = 0.3225	1114.12	3.195
353.15 K, x1 = 0.4189	1125.62	4.21
353.15 K, x1 = 0.607	1141.99	6.702
353.15 K, x1 = 0.6557	1144.28	7.182
353.15 K, x1 = 0.8283	1154.24	10.34
353.15 K, x1 = 0.9155	1158.44	12.24
353.15 K, x1 = 1	1162.44	14.37

C[S+](C)[O-] [dimethyl sulfoxide] + CCCCn1cc[n+](C)c1.F[B-](F)(F)F
x2 = 0
Settings	mass density [kg/m3]	viscosity [mPa·s]
293.15 K	1100.76	2.21
298.15 K	1095.74	–
303.15 K	1090.73	1.843
313.15 K	1080.69	1.556
323.15 K	1070.66	1.337
333.15 K	1060.63	1.165
343.15 K	1050.58	1.028
353.15 K	1040.51	0.917

CCCCn1cc[n+](C)c1.F[B-](F)(F)F [1-butyl-3-methylimidazolium tetrafluoroborate] + OCCO
Settings	mass density [kg/m3]	viscosity [mPa·s]
293.15 K, x1 = 0.0895	1133.64	19.89
293.15 K, x1 = 0.1758	1147.86	19.29
293.15 K, x1 = 0.3578	1167.8	23.44
293.15 K, x1 = 0.4397	1174.28	23.39
293.15 K, x1 = 0.6482	1187.63	39.69
293.15 K, x1 = 0.8121	1196.19	68.29
293.15 K, x1 = 1	1204.44	136.9
298.15 K, x1 = 0.0895	1129.95	–
298.15 K, x1 = 0.1758	1144.07	–
298.15 K, x1 = 0.3578	1163.96	–
298.15 K, x1 = 0.4397	1170.46	–
298.15 K, x1 = 0.6482	1183.91	–
298.15 K, x1 = 0.8121	1192.56	–
298.15 K, x1 = 1	1200.89	–
303.15 K, x1 = 0.0895	1126.26	12.66
303.15 K, x1 = 0.1758	1140.28	12.72
303.15 K, x1 = 0.3578	1160.12	15.48
303.15 K, x1 = 0.4397	1166.64	17.5
303.15 K, x1 = 0.6482	1180.21	26.17
303.15 K, x1 = 0.8121	1188.95	41.88
303.15 K, x1 = 1	1197.34	81.4
313.15 K, x1 = 0.0895	1118.86	8.881
313.15 K, x1 = 0.1758	1132.71	8.902
313.15 K, x1 = 0.3578	1152.49	10.87
313.15 K, x1 = 0.4397	1159.07	12.33
313.15 K, x1 = 0.6482	1172.85	18.29
313.15 K, x1 = 0.8121	1181.74	28.17
313.15 K, x1 = 1	1190.27	51.79
323.15 K, x1 = 0.0895	1111.43	6.422
323.15 K, x1 = 0.1758	1125.13	6.528
323.15 K, x1 = 0.3578	1144.89	8.034
323.15 K, x1 = 0.4397	1151.54	9.112
323.15 K, x1 = 0.6482	1165.56	13.41
323.15 K, x1 = 0.8121	1174.6	20.62
323.15 K, x1 = 1	1183.24	35.23
333.15 K, x1 = 0.0895	1103.95	4.88
333.15 K, x1 = 0.1758	1117.55	4.971
333.15 K, x1 = 0.3578	1137.35	6.16
333.15 K, x1 = 0.4397	1144.07	7.005
333.15 K, x1 = 0.6482	1158.32	10.2
333.15 K, x1 = 0.8121	1167.55	14.84
333.15 K, x1 = 1	1176.25	24.97
343.15 K, x1 = 0.0895	1096.42	3.807
343.15 K, x1 = 0.1758	1109.96	3.909
343.15 K, x1 = 0.3578	1129.84	4.87
343.15 K, x1 = 0.4397	1136.64	5.552
343.15 K, x1 = 0.6482	1151.14	8.019
343.15 K, x1 = 0.8121	1160.56	11.41
343.15 K, x1 = 1	1169.32	18.49
353.15 K, x1 = 0.0895	1088.83	2.872
353.15 K, x1 = 0.1758	1102.35	3.163
353.15 K, x1 = 0.3578	1122.35	3.932
353.15 K, x1 = 0.4397	1129.25	5.153
353.15 K, x1 = 0.6482	1144	6.479
353.15 K, x1 = 0.8121	1153.54	8.692
353.15 K, x1 = 1	1162.44	14.37
